Data as given in PubChem BioAssay (NCI).
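Where inhibition never reached the appropriate level, the endpoint shown equals the highest concentration tested. Otherwise, values were interpolated linearly from a five-concentration, 48-hour dose response in 96-well plates. At the GI50, growth is halved. The concentration for full growth arrest is given as TGI.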

Columns and labels:
Assay in all cases: inhibition of tumour cell growth, NCI panel, 48 h
[1] = system: U251 CNS
[2] = system: TK-10 renal
[3] = system: UACC-257 melanoma
[4] = system: UO-31 renal
[5] = system: SF-295 CNS
[6] = system: RXF 393 renal
[7] = system: HCT-15 colon
[8] = system: HCC-2998 colon
[9] = system: MDA-MB-231 breast
[10] = system: OVCAR-4 ovarian
[11] = system: HS 578T breast
[12] = system: T-47D breast
[13] = system: PC-3 prostate
[14] = system: HOP-62 NSCLC
[15] = system: ACHN renal
[16] = system: SNB-19 CNS
[17] = system: SN12C renal
[18] = system: MDA-MB-435
[19] = system: IGROV1 ovarian
[20] = system: BT-549 breast
[21] = system: LOX IMVI melanoma
[22] = system: CCRF-CEM leukemia
[23] = system: K-562 leukemia
[24] = system: OVCAR-3 ovarian
[25] = system: COLO 205 colon
[26] = system: SK-MEL-2 melanoma
[27] = system: OVCAR-5 ovarian
[28] = system: MCF7 breast
[29] = system: MOLT-4 leukemia
[30] = system: SF-539 CNS
[31] = system: SF-268 CNS
[32] = system: 786-0 renal
[33] = system: HCT-116 colon
[34] = system: OVCAR-8 ovarian
[35] = system: MDA-MB-468 breast
[36] = system: DU-145 prostate
[37] = system: HOP-92 NSCLC
[38] = system: SK-OV-3 ovarian
[39] = system: UACC-62 melanoma
[40] = system: HT29 colon
[41] = system: CAKI-1 renal
[42] = system: SK-MEL-5 melanoma
[43] = system: KM12 colon
[44] = system: MALME-3M melanoma
[45] = system: SK-MEL-28 melanoma
[46] = system: NCI-H460 lung
[47] = system: HL-60(TB) leukemia
[48] = system: NCI-H522 lung
[49] = system: SW-620 colon
[50] = system: NCI-H23 lung
[51] = system: NCI-H226 lung
[52] = system: A498 renal
[53] = system: SNB-75 CNS
[54] = system: NCI/ADR-RES ovarian
[55] = system: RPMI-8226 leukemia
[56] = system: A549 NSCLC
[57] = system: EKVX NSCLC
[58] = system: SR leukemia
[59] = system: M14 melanoma

## N/C(=N\c1nc2ccccc2s1)NC(=O)Nc1ccccc1[N+](=O)[O-]
[1]
  GI50: 0.0555 µM
  TGI: 14 µM
[2]
  GI50: 12.9 µM
  TGI: 28.4 µM
[3]
  GI50: 12.2 µM
  TGI: 25 µM
[4]
  GI50: 0.244 µM
  TGI: 17.1 µM
[5]
  GI50: 0.055 µM
  TGI: 10.8 µM
[6]
  GI50: 0.0472 µM
  TGI: 0.499 µM
[7]
  GI50: 0.0482 µM
  TGI: 11.3 µM
[8]
  GI50: 0.203 µM
  TGI: 6.1 µM
[9]
  GI50: 0.139 µM
  TGI: 4.66 µM
[10]
  GI50: 8.07 µM
  TGI: 42.5 µM
[11]
  GI50: 0.0615 µM
  TGI: 18.7 µM
[12]
  GI50: 0.538 µM
  TGI: 25.7 µM
[13]
  GI50: 0.143 µM
  TGI: 28.8 µM
[14]
  GI50: 0.104 µM
  TGI: 19.6 µM
[15]
  GI50: 0.111 µM
  TGI: 16.3 µM
[16]
  GI50: 0.151 µM
  TGI: 19.6 µM
[17]
  GI50: 0.258 µM
  TGI: 12.7 µM
[18]
  GI50: 0.0242 µM
  TGI: 0.0728 µM
[19]
  GI50: 0.108 µM
  TGI: 12.7 µM
[20]
  GI50: 0.202 µM
  TGI: 6.56 µM
[21]
  GI50: 0.0698 µM
  TGI: 11.6 µM
[22]
  GI50: 0.0555 µM
  TGI: 16.6 µM
[23]
  GI50: 0.0424 µM
  TGI: > 100 µM
[24]
  GI50: 0.0514 µM
  TGI: 9.13 µM
[25]
  GI50: 0.169 µM
  TGI: 0.781 µM
[26]
  GI50: 0.0329 µM
  TGI: 3.02 µM
[27]
  GI50: 0.376 µM
  TGI: 13.1 µM
[28]
  GI50: 0.168 µM
  TGI: 12.6 µM
[29]
  GI50: 0.195 µM
  TGI: > 51.3 µM
[30]
  GI50: 0.0399 µM
  TGI: 0.273 µM
[31]
  GI50: 2.36 µM
  TGI: 36.8 µM
[32]
  GI50: 0.186 µM
  TGI: 13.6 µM
[33]
  GI50: 0.0431 µM
  TGI: 6.06 µM
[34]
  GI50: 0.201 µM
  TGI: 9.44 µM
[35]
  GI50: 0.228 µM
  TGI: 0.573 µM
[36]
  GI50: 0.327 µM
  TGI: 13.4 µM
[37]
  GI50: 4.58 µM
  TGI: 26.3 µM
[38]
  GI50: 0.236 µM
  TGI: 31.1 µM
[39]
  GI50: 0.0459 µM
  TGI: 14 µM
[40]
  GI50: 0.0621 µM
  TGI: 0.645 µM
[41]
  GI50: 0.0635 µM
  TGI: 16.1 µM
[42]
  GI50: 0.0527 µM
  TGI: 1.59 µM
[43]
  GI50: 0.0605 µM
  TGI: 14 µM
[44]
  GI50: 0.103 µM
  TGI: 16.7 µM
[45]
  GI50: 1.2 µM
  TGI: 20.6 µM
[46]
  GI50: 0.0568 µM
  TGI: 6.76 µM
[47]
  GI50: 0.0341 µM
  TGI: > 100 µM
[48]
  GI50: 0.033 µM
  TGI: 0.363 µM
[49]
  GI50: 0.0529 µM
  TGI: 19.5 µM
[50]
  GI50: 0.266 µM
  TGI: 16.8 µM
[51]
  GI50: 0.571 µM
  TGI: 9.26 µM
[52]
  GI50: 17.2 µM
  TGI: 32.8 µM
[53]
  GI50: 0.0363 µM
  TGI: 12.5 µM
[54]
  GI50: 0.045 µM
  TGI: 0.345 µM
[55]
  GI50: 0.341 µM
  TGI: > 59.9 µM
[56]
  GI50: 0.346 µM
  TGI: 16.9 µM
[57]
  GI50: 0.248 µM
  TGI: 17.9 µM

## COc1ccc(C(=O)/C=C/c2ccc(OCc3ccc(F)cc3)c(OC)c2)cc1OC
[1]
  GI50: 3.79 µM
  TGI: > 100 µM
[2]
  GI50: 14.3 µM
  TGI: > 100 µM
[3]
  GI50: 23.2 µM
  TGI: > 100 µM
[4]
  GI50: 3.7 µM
  TGI: > 100 µM
[5]
  GI50: 3.99 µM
  TGI: > 100 µM
[7]
  GI50: 3.09 µM
  TGI: > 100 µM
[8]
  GI50: 3 µM
  TGI: 16.4 µM
[9]
  GI50: 3.95 µM
  TGI: > 100 µM
[10]
  GI50: 3.94 µM
  TGI: > 100 µM
[11]
  GI50: 23 µM
  TGI: > 100 µM
[12]
  GI50: 5.34 µM
  TGI: > 100 µM
[13]
  GI50: 6.1 µM
  TGI: > 100 µM
[14]
  GI50: 3.55 µM
  TGI: > 100 µM
[15]
  GI50: 6.46 µM
  TGI: > 100 µM
[16]
  GI50: 4.11 µM
  TGI: > 100 µM
[17]
  GI50: 2.95 µM
  TGI: > 100 µM
[18]
  GI50: 5.06 µM
  TGI: 60.9 µM
[19]
  GI50: 3.88 µM
  TGI: > 100 µM
[20]
  GI50: 3.62 µM
  TGI: 60 µM
[21]
  GI50: 3.06 µM
  TGI: > 100 µM
[22]
  GI50: 3.49 µM
  TGI: > 100 µM
[23]
  GI50: 3.72 µM
  TGI: > 100 µM
[24]
  GI50: 4.64 µM
  TGI: > 100 µM
[25]
  GI50: 7.93 µM
  TGI: > 100 µM
[26]
  GI50: 13.4 µM
  TGI: 47.6 µM
[27]
  GI50: 3.32 µM
  TGI: > 100 µM
[28]
  GI50: 3.04 µM
  TGI: > 100 µM
[58]
  GI50: 3.18 µM
  TGI: > 100 µM
[29]
  GI50: 4.07 µM
  TGI: > 100 µM
[30]
  GI50: 3.36 µM
  TGI: 16.7 µM
[31]
  GI50: 12 µM
  TGI: > 100 µM
[32]
  GI50: 30 µM
  TGI: > 100 µM
[33]
  GI50: 3.57 µM
  TGI: > 100 µM
[34]
  GI50: 3.46 µM
  TGI: > 100 µM
[35]
  GI50: 2.74 µM
  TGI: > 100 µM
[36]
  GI50: 5.64 µM
  TGI: > 100 µM
[37]
  GI50: 7.53 µM
  TGI: > 100 µM
[38]
  GI50: 34.8 µM
  TGI: > 100 µM
[39]
  GI50: 4.41 µM
  TGI: > 100 µM
[40]
  GI50: 3.02 µM
  TGI: > 100 µM
[41]
  GI50: 6.01 µM
  TGI: > 100 µM
[42]
  GI50: 10.4 µM
  TGI: 29 µM
[43]
  GI50: 4.31 µM
  TGI: > 100 µM
[59]
  GI50: 22.6 µM
  TGI: > 100 µM
[44]
  GI50: 27.5 µM
  TGI: > 100 µM
[45]
  GI50: 29.3 µM
  TGI: > 100 µM
[46]
  GI50: 5.88 µM
  TGI: > 100 µM
[47]
  GI50: 10.4 µM
  TGI: > 100 µM
[48]
  GI50: 3.39 µM
  TGI: 71.6 µM
[49]
  GI50: 3.8 µM
  TGI: > 100 µM
[50]
  GI50: 4.44 µM
  TGI: 79.3 µM
[51]
  GI50: 4.7 µM
  TGI: > 100 µM
[52]
  GI50: 26.1 µM
  TGI: > 100 µM
[53]
  GI50: 17.3 µM
  TGI: 99.2 µM
[54]
  GI50: 2.86 µM
  TGI: 16.2 µM
[55]
  GI50: 2.7 µM
  TGI: > 100 µM
[56]
  GI50: 4.81 µM
  TGI: > 100 µM
[57]
  GI50: 5.19 µM
  TGI: > 100 µM
